Consider 1 compound from article PMC9861623, “New Ferulic Acid and Amino Acid Derivatives with Increased Cosmeceutical and Pharmaceutical Potential” (Pharmaceutics, 2022).

The nature of series [1]: Skin permeation in Franz diffusion cells. The class given is in vitro ADME, pig. The settings on record: 24 h, 10 mg as FA applied. The protocol:
In the experiment, abdominal porcine skin coming from the local slaughterhouse was used. Pig skin was chosen because of its similar permeability to human skin [34, 35]. The fresh abdominal porcine skin was washed several times in PBS buffer pH 7.4. The skin of 0.5 mm in thickness was dermatomed and divided into 2 cm × 2 cm pieces. The skin samples were wrapped in aluminum foil and stored at −20 °C until use, not longer than 3 months. According to Badran et al., this storage time at this temperature is safe to keep skin barrier properties. Immediately before the experiment, the skin samples were slowly thawed at room temperature for 30 min and then were hydrated by PBS pH 7.4 [37, 38, 39, 40]. Such prepared skin was mounted on donor chamber. Only the undamaged skin pieces with an even thickness were chosen for experiments. The integrity of the skin was checked by impedance measurement using an LCRmeter4080 (Conrad Electronic, Hirschau, Germany), operated in parallel mode at an alternating frequency of 120 Hz (error at kΩ values < 0.5%). The tips of measuring probes were immersed in the donor and acceptor chamber containing PBS (pH 7.4), as described previously. Only skin samples of impedance > 3 kΩ were applied as such impedance is similar to the electrical resistance of human skin [42].
The concentration of FA and its derivatives in the acceptor fluid and in the fluid obtained by skin extraction after permeation experiment was assessed using liquid chromatography system (Knauer, Berlin, Germany) consisting of a model 2600 UV detector, Smartline model 1050 pump and Smartline model 3950 autosampler. HPLC was controlled by ClarityChrom 2009 software. The detector was operated at 280 nm. The separations were performed on 125 mm × 4 mm ID chromatographic column filled with Hyperisil ODS (C18), particle size 5 µm, in isocratic mode. The mobile phase consisted of acetonitrile, 1% acetic acid, and MeOH (47/47/6 v/v/v) and was pumped at flow rate of 1 mL min^−1. The column temperature was set at 25 °C, and the injection volume was 20 µL.
The permeation experiments were performed using Franz diffusion cells (Phoenix DB-6, ABL&E-JASCO, Wien, Austria). The diffusion was 1 cm^2. The volume of the acceptor chamber was 8 mL. This chamber was filled with PBS solution (pH 7.4). During experiment, a constant temperature of 37.0 ± 0.5 °C was maintained in each diffusion unit. The acceptor chamber content was stirred with a magnetic stirring bar at the same speed for all cells. The prepared pig skin was mounted on each donor chamber. As previously mentioned, only undamaged skin pieces with an even thickness were chosen for experiments. Thereafter, the hydrogel or emulsion vehicle/preparation in 1 g portion was put on the skin in donor cells. For comparison, 1 mL ethanolic solution containing either FA or its derivatives was applied to another donor chamber. The amount of the FA and its derivatives applied on the skin expressed as the mass of ferulic acid was 0.01 g and was the same for each carrier. The penetration experiments were carried out for 24 h. The samples were collected after 1 h, 2 h, 3 h, 4 h, 5 h, 6 h, 8 h, and 24 h. Aliquots of the acceptor fluid (0.5 mL) were withdrawn and to each acceptor chamber the same volume of fresh PBS solution was added. The FA and its derivatives’ concentrations in the acceptor fluid were measured by HPLC method (Section 2.6.2). The cumulative mass (µg·cm^−2) and penetration rate (µg·cm^−2·h^−1) were calculated. The acceptor fluid collected after 24 h of permeation was also measured for antioxidant activity and total polyphenol content (as described in Section 2.5.1 and Section 2.5.2).

Series [2] in a line: DPPH antioxidant activity of solution obtained after skin extraction. Set-up: species or system pig. The note with it: after 24 h penetration, listed as FA. As to the method: To determine the antioxidant capacity of ferulic acid and its derivatives the DPPH method was used. The analyses were performed using the Hitachi UV-Vis Spectrophotometer U-5100 at the wavelength λ = 517 nm. Trolox (6-hydroxy-2,5,7,8-tetramethylchroman-2-carboxylic acid) was used as a reference substance. The antioxidant activity was expressed as %RSA and mmol Trolox dm^−3. […]. Blank samples without antioxidant were prepared in the same way. The tubes were wrapped in aluminum foil and were sealed with a stopper and then incubated for 10 min at room temperature. After this time, spectrophotometric measurements were carried out in triplicate. For determination of antioxidant activity of the acceptor fluid after 24 h of permeation and solutions obtained by extraction of the skin obtained after penetration study, 0.15 mL samples of each solutions were separately added to 2.85 mL of DPPH solution and spectrophotometric measurements were performed. The antioxidant activity was expressed as mmol Trolox·dm^−3.
The accumulation of the FA and its derivatives in the skin after 24 h permeation process through the skin were determined using a modification of the methods described by Janus et al. and Taokaew et al.. After 24 h of permeation experiment, the skin samples were removed from the Franz diffusion cell, washed three times with 0.5% sodium lauryl sulfate solution and dried at room temperature. Next, after cutting out the diffusion area of each skin sample, the samples were immersed in 2 mL of absolute ethanol and continuously stirred at 300 rpm at room temperature for 24 h. The samples were then centrifuged, and clear solutions were collected and analyzed by HPLC method for the determination of FA and its derivatives. The accumulation of the active substance in the skin was calculated by dividing the amount of the drug remaining in the skin by a mass of skin sample and was expressed in mass active substance per mass of the skin (µg g^−1). For solution obtained after skin extraction, the antioxidant activity and total polyphenol content were also determined (as described in Section 2.5.1 and Section 2.5.2).
(Loss of DPPH colour is used to gauge radical scavenging.)

The next series has as its system 3T3-L1 cells. Set-up: method as in PMID 29077251. The settings on record: 3T3-L1, 500 μg mL^−1; cited from earlier work.
The test system of a further series is diabetic rats. The arrangement: method as in doi:10.1016/j.jddst.2022.103621. The note with it: 50 mg kg^−1 body wt., orally for 8 weeks; cited from earlier work.

Several values for one entry are separate records, joined by “and”; a condition that tells them apart may be missing. Identical values can stand only once.

In the case of `COc1cc(/C=C/C(=O)O)ccc1O` [Ferulic acid], the figures for the “Cumulative Permeation Mass” value in series [1] (from emulsion), in series [1] (from hydrogel) and in series [1] (from solution in 70% (v/v) ethanol) were 104.93 ± 7.63 a µg FA·cm^−2, 289.36 ± 38.50 a µg FA·cm^−2 and 368.57 ± 2.94 a µg FA·cm^−2, respectively. Further, the “DPPH antioxidant activity of the solution obtained after skin extraction” value is 0.300 ± 0.024 b mmol Trolox dm^−3 in series [2] (emulsion); 0.394 ± 0.004 mmol Trolox dm^−3 and 0.394 ± 0.004 b mmol Trolox dm^−3 in series [2] (ethanol solution); 0.381 ± 0.011 mmol Trolox dm^−3 and 0.381 ± 0.011 b mmol Trolox dm^−3 in series [2] (hydrogel). For the same compound, the “toxicity on normal cells” value with 3T3-L1 cells is listed as “did not cause any toxicity”. The “effect in diabetic rats” value in the series on diabetic rats was “markedly ameliorated kidney injury, renal cell apoptosis, inflammation, and defective autophagy in the kidneys”.
